# Measured values reported in paper PMC8269283 (ACS chemical neuroscience, 2018).
# Read-outs that look alike come from different tables or passages of the source.
# Legend:
# [1] = system: DAT; conditions: cited from earlier work
# [2] = system: SERT; conditions: cited from earlier work
# [3] = target: T1, DAT (Rattus norvegicus, UniProt P23977); experiment: transporter-mediated release in rat brain synaptosomes, DAT; format: biochemical; conditions: for DAT vs SERT Selectivity: SERT EC50 ÷ DAT EC50
# T1 sequence (P23977 whole entry): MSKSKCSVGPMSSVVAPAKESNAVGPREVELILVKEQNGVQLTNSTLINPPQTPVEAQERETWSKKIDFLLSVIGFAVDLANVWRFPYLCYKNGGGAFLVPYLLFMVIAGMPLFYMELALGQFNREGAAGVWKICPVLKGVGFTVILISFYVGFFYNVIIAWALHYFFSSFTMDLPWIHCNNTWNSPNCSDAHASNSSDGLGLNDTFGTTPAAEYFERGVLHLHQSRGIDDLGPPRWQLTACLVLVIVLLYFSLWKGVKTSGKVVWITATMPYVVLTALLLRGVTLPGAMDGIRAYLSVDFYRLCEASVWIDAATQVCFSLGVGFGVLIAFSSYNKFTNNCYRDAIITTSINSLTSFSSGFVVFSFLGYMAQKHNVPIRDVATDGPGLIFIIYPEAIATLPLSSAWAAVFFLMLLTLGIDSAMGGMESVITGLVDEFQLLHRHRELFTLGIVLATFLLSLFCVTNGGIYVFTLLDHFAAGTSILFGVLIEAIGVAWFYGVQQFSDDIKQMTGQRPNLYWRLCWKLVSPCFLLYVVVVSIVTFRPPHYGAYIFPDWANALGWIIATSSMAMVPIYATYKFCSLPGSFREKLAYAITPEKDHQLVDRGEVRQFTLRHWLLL
# [4] = target: T2, SERT (Rattus norvegicus, UniProt P31652); experiment: transporter-mediated release in rat brain synaptosomes, SERT; format: biochemical
# T2 sequence (P31652 whole entry): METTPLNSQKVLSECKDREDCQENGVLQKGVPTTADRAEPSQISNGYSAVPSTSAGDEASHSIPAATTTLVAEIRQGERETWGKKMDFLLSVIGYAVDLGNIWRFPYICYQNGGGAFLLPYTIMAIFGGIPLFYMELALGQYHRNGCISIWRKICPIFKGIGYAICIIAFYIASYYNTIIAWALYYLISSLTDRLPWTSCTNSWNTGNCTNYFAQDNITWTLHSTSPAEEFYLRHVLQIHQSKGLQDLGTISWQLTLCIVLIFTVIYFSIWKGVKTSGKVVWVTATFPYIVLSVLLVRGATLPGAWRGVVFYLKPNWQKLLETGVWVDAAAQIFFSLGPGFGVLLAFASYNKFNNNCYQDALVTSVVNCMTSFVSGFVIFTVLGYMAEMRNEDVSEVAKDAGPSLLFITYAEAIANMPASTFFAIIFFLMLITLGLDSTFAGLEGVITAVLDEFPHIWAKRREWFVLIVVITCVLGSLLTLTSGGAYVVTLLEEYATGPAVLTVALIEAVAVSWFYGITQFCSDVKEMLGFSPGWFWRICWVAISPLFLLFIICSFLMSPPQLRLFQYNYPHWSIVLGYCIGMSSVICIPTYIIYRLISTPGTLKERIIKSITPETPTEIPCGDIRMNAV
# [5] = target: T1, DAT; conditions: cited from earlier work
# [6] = target: NET (Rattus norvegicus, UniProt Q63380); conditions: read-out: EC50 as NET releasing agent, previously reported; cited from earlier work
# Sequence of NET (Rattus norvegicus, UniProt Q63380) (Q63380 1-617): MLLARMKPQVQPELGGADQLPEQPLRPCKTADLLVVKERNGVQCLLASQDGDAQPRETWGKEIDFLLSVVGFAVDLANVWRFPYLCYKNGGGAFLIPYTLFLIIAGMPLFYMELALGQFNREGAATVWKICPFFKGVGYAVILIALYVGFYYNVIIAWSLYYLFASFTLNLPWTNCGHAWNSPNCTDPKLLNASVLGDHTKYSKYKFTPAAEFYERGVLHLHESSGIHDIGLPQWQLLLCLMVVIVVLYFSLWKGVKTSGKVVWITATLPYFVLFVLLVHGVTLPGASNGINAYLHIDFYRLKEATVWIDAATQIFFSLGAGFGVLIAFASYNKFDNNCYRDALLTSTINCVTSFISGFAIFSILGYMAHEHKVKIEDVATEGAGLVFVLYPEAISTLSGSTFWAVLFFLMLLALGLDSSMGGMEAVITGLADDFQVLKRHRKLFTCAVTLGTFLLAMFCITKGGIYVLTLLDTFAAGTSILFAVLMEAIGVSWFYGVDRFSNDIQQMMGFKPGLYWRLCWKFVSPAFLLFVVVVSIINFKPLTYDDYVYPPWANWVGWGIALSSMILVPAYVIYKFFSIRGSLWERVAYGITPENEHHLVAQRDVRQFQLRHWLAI
# [7] = target: T2, SERT; conditions: cited from earlier work
# [8] = system: NET; conditions: read-out: IC50 reuptake inhibitor at NET; cited from earlier work
# [9] = system: SERT; conditions: read-out: IC50 reuptake inhibitor at SERT; cited from earlier work
# [10] = system: DAT; conditions: read-out: IC50 reuptake inhibitor at DAT; cited from earlier work
# [11] = system: NET; conditions: read-out: IC50 reuptake inhibitor at NET; cited from earlier work; remark: listed apart in the source
# [12] = system: SERT; conditions: read-out: IC50 reuptake inhibitor at SERT; cited from earlier work; remark: listed apart in the source
Structure (SMILES),EC50 [3],DAT vs SERT Selectivity ([3]; 2-substituted series),EC50 [4],DAT vs SERT Selectivity ([3]; 3-substituted series),further results
CNC(C)C(=O)c1ccccc1C(F)(F)F (stereo not drawn) [2-CF3 analog],–,–,–,–,less potent than 3e as a releasing agent at DAT [1]: > 10 fold; less potent than 3e as a releasing agent at SERT [2]: > 10 fold
"CNC(C)C(=O)c1ccccc1Cl.Cl (stereo not drawn) [2a, 1-(2-Chlorophenyl)-2-(methylamino)propan-1-one Hydrochloride]",179 nM,16,2810 nM,–,–
"CNC(C)C(=O)c1ccccc1Br.Cl (stereo not drawn) [2b, 1-(2-Bromophenyl)-2-(methylamino)propan-1-one Hydrochloride]",650 nM,4,2840 nM,–,–
"CNC(C)C(=O)c1ccccc1C.Cl (stereo not drawn) [2c, 2-(Methylamino)-1-(2-methylphenyl)propan-1-one Hydrochloride]",81 nM,6,490 nM,–,–
"CNC(C)C(=O)c1ccccc1OC.Cl (stereo not drawn) [2d, 1-(2-Methoxyphenyl)-2-(methylamino)propan-1-one Hydrochloride]",920 nM,8,7220 nM,–,–
"CNC(C)C(=O)c1cccc(Cl)c1 (stereo not drawn) [3a, 3-Chloromethcathinone]",–,–,–,8,"EC50 ([5]; read-out: EC50 as DAT releasing agent, previously reported): 29 nM; EC50 [6]: 40 nM; EC50 ([7]; read-out: EC50 as SERT releasing agent, previously reported): 212 nM"
"CNC(C)C(=O)c1cccc(Br)c1.Cl (stereo not drawn) [3b, 1-(3-Bromophenyl)-2-(methylamino)propan-1-one Hydrochloride]",21 nM,–,136 nM,6,IC50 [8]: 158 nM; IC50 [9]: 2000 nM
"CNC(C)C(=O)c1cccc(C)c1.Cl (stereo not drawn) [3c, 2-(Methylamino)-1-(3-methylphenyl)propan-1-one Hydrochloride]",28 nM,–,268 nM,10,IC50 [10]: 2600 nM; IC50 [11]: 270 nM; IC50 [12]: 9500 nM
"CNC(C)C(=O)c1cccc(OC)c1.Cl (stereo not drawn) [3d, 2-(Methylamino)-1-(3-methoxyphenyl)propan-1-one Hydrochloride]",109 nM,–,683 nM,6,–
"CNC(C)C(=O)c1cccc(C(F)(F)F)c1.Cl (stereo not drawn) [3e, 2-(Methylamino)-1-(3-(trifluoromethyl)phenyl)propan-1-one Hydrochloride]",714 nM,–,281 nM,0.4,–
CNC(C)C(=O)c1ccc(C(F)(F)F)cc1 (stereo not drawn) [4e],–,–,–,–,SERT selectivity (SERT vs DAT) as a releasing agent [7]: 14 fold
"CNC(C)C(=O)c1ccccc1 (stereo not drawn) [compound 1, Methcathinone]",–,103,–,279,selectivity for DAT vs SERT as a releasing agent [5]: > 300 fold
